Experimental data from patent US20190134005A1 (BioMarin Pharmaceutical Inc., priority 2016, published 2019).

Target: T1, human CGT (Homo sapiens, UniProt Q16880)
T1 sequence (Q16880 21-541): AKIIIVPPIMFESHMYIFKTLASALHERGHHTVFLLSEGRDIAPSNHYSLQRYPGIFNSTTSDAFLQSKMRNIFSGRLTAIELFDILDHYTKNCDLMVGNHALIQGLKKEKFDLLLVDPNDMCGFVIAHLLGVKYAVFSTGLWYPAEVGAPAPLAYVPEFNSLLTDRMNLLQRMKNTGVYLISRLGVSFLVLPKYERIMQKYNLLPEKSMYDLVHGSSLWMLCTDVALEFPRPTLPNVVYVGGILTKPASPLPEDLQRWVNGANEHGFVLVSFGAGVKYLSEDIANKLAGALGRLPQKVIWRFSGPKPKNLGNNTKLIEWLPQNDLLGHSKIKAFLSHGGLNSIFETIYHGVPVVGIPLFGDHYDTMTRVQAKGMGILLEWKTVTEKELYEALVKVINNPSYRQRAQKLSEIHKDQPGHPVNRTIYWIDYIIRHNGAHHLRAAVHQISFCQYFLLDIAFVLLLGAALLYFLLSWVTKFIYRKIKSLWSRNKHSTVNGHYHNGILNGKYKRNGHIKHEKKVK
Assay: Assay 1: CGT Enzymatic Assay (RapidFire/MS/MS, 0.01% Tween 80)
Type: biochemical
Conditions: Table 1, Compounds of Formula (I) and Formula (II); CGT enzymatic assay, C6-NBD-dihydro-galactosylceramide readout; read-out: IC50

First: COc1ccc(N2C(=O)N(c3ccc(OC)cc3)C(O)(c3cccc(OC(F)(F)F)c3)[C@@H]2C(C)C)cc1 (stereo partly drawn) [Example 329-1, (5S)-4-hydroxy-5-isopropyl-1,3-bis(4-methoxyphenyl)-4-(3-(trifluoromethoxy)phenyl)imidazolidin-2-one]
Second: COc1ccc(N2C(=O)N(c3ccc(OC)cc3)C(O)(c3cccc(OC(F)(F)F)c3)C2C(C)C)cc1 (racemic) [Example 329, (5S)-4-hydroxy-5-isopropyl-1,3-bis(4-methoxyphenyl)-4-(3-(trifluoromethoxy)phenyl)imidazolidin-2-one and (5R)-4-hydroxy-5-isopropyl-1,3-bis(4-methoxyphenyl)-4-(3-(trifluoromethoxy)phenyl)imidazolidin-2-one]
The IC50 of the first is higher: 1 to 10 µM for the first, < 1 µM for the second.

`COCC1(C)N(c2ccc(Cl)cc2)C(=O)N(c2ccc(Cl)cc2)C1(O)c1cccc(OC(F)(F)F)c1` (mixture of isomers) [Compound 296, 1,3-bis(4-chlorophenyl)-4-hydroxy-5-(methoxymethyl)-5-methyl-4-(3-(trifluoromethoxy)phenyl)imidazolidin-2-one] and `COC[C@]1(C)N(c2ccc(Cl)cc2)C(=O)N(c2ccc(Cl)cc2)C1(O)c1cccc(C#N)c1` (single isomer, unassigned) [Compound 297-2] cannot be ordered by IC50: < 1 µM for the first, < 1 µM for the second.

`Cc1ccc(N2C(=O)N(c3ccc(C#N)cc3)C(O)(c3cccc(OC(F)(F)F)c3)C23CCC3)cc1` (stereo not shown) [Compound 281, 4-(8-hydroxy-6-oxo-5-(p-tolyl)-8-(3-(trifluoromethoxy)phenyl)-5,7-diazaspiro[3.4]octan-7-yl)benzonitrile] and `CC1(C)N(c2ccc(Cl)cc2)C(=O)N(c2ccc(C#N)cc2)C1(O)c1cccc(OC(F)(F)F)c1` (stereo not shown) [Compound 273, 4-(3-(4-chlorophenyl)-5-hydroxy-4,4-dimethyl-2-oxo-5-(3-(trifluoromethoxy)phenyl)imidazolidin-1-yl)benzonitrile] cannot be ordered by IC50: < 1 µM for the first, < 1 µM for the second.

`N#Cc1cc(C#N)cc(C2(O)N(c3ccc(Cl)cc3)C(=O)N(c3ccc(Cl)cc3)C23COC3)c1` (stereo not shown) [Compound 306, 5-(5,7-bis(4-chlorophenyl)-8-hydroxy-6-oxo-2-oxa-5,7-diazaspiro[3.4]octan-8-yl)isophthalonitrile] was tested, and the IC50 was < 1 µM.

Same assay, conditions: Table 1, Compounds of Formula (I) and Formula (II); CGT enzymatic assay; read-out: IC50

Going from `N#Cc1ccc(C2(O)CN(c3ccc(Br)cc3)C(=O)N2c2ccc(Br)cc2)cc1` (stereo not shown) [Compound 61, 4-(1,3-bis(4-bromophenyl)-4-hydroxy-2-oxoimidazolidin-4-yl)benzonitrile] to `O=C1N(c2ccc(Br)cc2)CC(O)(c2cccc(C(F)(F)F)c2)N1c1ccc(Br)cc1` (stereo not shown) [Example 31, 1,3-bis(4-bromophenyl)-4-hydroxy-4-(3-(trifluoromethyl)phenyl)imidazolidin-2-one], the IC50 falls from > 50 µM to < 1 µM. The second is the more potent here.

`O=C1N(c2ccc(Cl)cc2)[C@@H](C2CCC2)C(O)(c2cccc(OC(F)(F)F)c2)N1c1ccc(Cl)cc1` (stereo partly drawn) [Example 191-1, (5S)-1,3-bis(4-chlorophenyl)-5-cyclobutyl-4-hydroxy-4-(3-(trifluoromethoxy)phenyl)imidazolidin-2-one] and `CN(C)CC1N(c2ccc(Cl)cc2)C(=O)N(c2ccc(Cl)cc2)C1(O)c1cccc(OC(F)(F)F)c1` (stereo not shown) [Example 166, 1,3-bis(4-chlorophenyl)-5-((dimethylamino)methyl)-4-hydroxy-4-(3-(trifluoromethoxy)phenyl)imidazolidin-2-one] cannot be ordered by IC50: < 1 µM for the first, < 1 µM for the second.

First: N#Cc1cccc(C2(O)[C@H](CC3CC3)N(c3ccc(Cl)cc3)C(=O)N2c2ccc(Cl)cc2)c1 (single isomer, unassigned) [Compound 132-1]
Second: N#Cc1cccc(C2(O)C(CC3CC3)N(c3ccc(Cl)cc3)C(=O)N2c2ccc(Cl)cc2)c1 (stereo not shown) [Compound 132, 3-(1,3-bis(4-chlorophenyl)-5-(cyclopropylmethyl)-4-hydroxy-2-oxoimidazolidin-4-yl)benzonitrile]
The IC50 of the first is higher: 1 to 10 µM for the first, < 1 µM for the second. The second is the more potent here.

`O=C1N(c2ccc(Br)cc2)C(=O)C(O)(c2ccc(OC3CCC3)cc2)N1c1ccc(Br)cc1` (stereo not shown) [Example 174, 1,3-bis(4-bromophenyl)-5-(4-cyclobutoxyphenyl)-5-hydroxyimidazolidine-2,4-dione] and `O=C1N(c2ccc(Br)cc2)C(=O)C(O)(c2ccc(OC3CCCCC3)cc2)N1c1ccc(Br)cc1` (stereo not shown) [Example 169, 1,3-bis(4-bromophenyl)-5-(4-(cyclohexyloxy)phenyl)-5-hydroxyimidazolidine-2,4-dione] cannot be ordered by IC50: > 50 µM for the first, > 50 µM for the second.

`CC[C@@H]1N(c2ccc(Cl)cc2)C(=O)N(c2ccc(Cl)cc2)C1(O)c1cccc(C)c1` (stereo partly drawn) [Compound 75-1, (5S)-1,3-bis(4-chlorophenyl)-5-ethyl-4-hydroxy-4-(m-tolyl)imidazolidin-2-one] and `CC[C@@H]1N(c2ccc(Cl)cc2)C(=O)N(c2ccc(Cl)cc2)C1(O)c1cccc(C#N)c1` (single isomer, unassigned) [Compound 106-1] cannot be ordered by IC50: < 1 µM for the first, < 1 µM for the second.

`N#Cc1cccc(C2(O)N(c3ccc(Cl)cc3)C(=O)N(c3ccc(Cl)cc3)C23CCOC3)c1` (stereo not shown) [Example 221, 3-(1,3-bis(4-chlorophenyl)-4-hydroxy-2-oxo-7-oxa-1,3-diazaspiro[4.4]nonan-4-yl)benzonitrile] and `N#Cc1cccc(C2(O)N(c3ccc(Cl)cc3)C(=O)N(c3ccc(Cl)cc3)C23CCC3)c1` (stereo not shown) [Compound 72, 3-(5,7-bis(4-chlorophenyl)-8-hydroxy-6-oxo-5,7-diazaspiro[3.4]octan-8-yl)benzonitrile] cannot be ordered by IC50: < 1 µM for the first, < 1 µM for the second.

First: CC(C)c1ccc(N2C(=O)N(c3ccc(C(C)C)cc3)C(O)(c3ccccc3)C2=O)cc1 (stereo not shown) [Compound 145, 5-hydroxy-1,3-bis(4-isopropylphenyl)-5-phenylimidazolidine-2,4-dione]
Second: O=C1N(c2ccc(Cl)cc2)[C@@H](c2ccccc2)[C@@](O)(CO)N1c1ccc(Cl)cc1 [Example 218-2, (4R,5S)-1,3-bis(4-chlorophenyl)-4-hydroxy-4-(hydroxymethyl)-5-phenylimidazolidin-2-one]
The IC50 of the first is higher: 50 to 100 µM for the first, 10 to 50 µM for the second.

`CC[C@@H]1N(c2ccc(Br)cc2)C(=O)N(c2ccc(Br)cc2)C1(O)c1cccc(C(F)(F)F)c1` (stereo partly drawn) [Compound 67-1, (5S)-1,3-bis(4-bromophenyl)-5-ethyl-4-hydroxy-4-(3-(trifluoromethyl)phenyl)imidazolidin-2-one] and `CCC[C@@H]1N(c2ccc(Br)cc2)C(=O)N(c2ccc(Br)cc2)C1(O)c1cccc(C(F)(F)F)c1` (stereo partly drawn) [Compound 100-1, (5S)-1,3-bis(4-bromophenyl)-4-hydroxy-5-propyl-4-(3-(trifluoromethyl)phenyl)imidazolidin-2-one] cannot be ordered by IC50: < 1 µM for the first, < 1 µM for the second.

`CCC[C@H]1N(c2ccc(Br)cc2)C(=O)N(c2ccc(Br)cc2)C1(O)c1cccc(CC)c1` (stereo partly drawn) [Compound 88-2, (5R)-1,3-bis(4-bromophenyl)-4-(3-ethylphenyl)-4-hydroxy-5-propylimidazolidin-2-one] and `CCc1cccc(C2(O)[C@H](C)N(c3ccc(Br)cc3)C(=O)N2c2ccc(Br)cc2)c1` (stereo partly drawn) [Compound 68-1, (5S)-1,3-bis(4-bromophenyl)-4-(3-ethylphenyl)-4-hydroxy-5-methylimidazolidin-2-one] cannot be ordered by IC50: < 1 µM for the first, < 1 µM for the second.

`O=C1N(c2ccc(Br)cc2)CC(O)(c2ccccn2)N1c1ccc(Br)cc1` (stereo not shown) [Example 9, 1,3-bis(4-bromophenyl)-4-hydroxy-4-(pyridin-2-yl)imidazolidin-2-one] and `CC1(O)C(=O)N(c2ccc(Br)cc2)C(=O)N1c1ccc(Br)cc1` (stereo not shown) [Example 193, 1,3-bis(4-bromophenyl)-5-hydroxy-5-methylimidazolidine-2,4-dione] cannot be ordered by IC50: > 50 µM for the first, 50 to 100 µM for the second.

`C[C@H]1N(c2ccc(Br)cc2)C(=O)N(c2ccc(Br)cc2)C1(O)c1cccc(Cl)c1` (stereo partly drawn) [Compound 73-2, (5R)-1,3-bis(4-bromophenyl)-4-(3-chlorophenyl)-4-hydroxy-5-methylimidazolidin-2-one] and `C[C@@H]1N(c2ccc(Br)cc2)C(=O)N(c2ccc(Br)cc2)C1(O)c1cccc(Cl)c1` (stereo partly drawn) [Compound 73-1, (5S)-1,3-bis(4-bromophenyl)-4-(3-chlorophenyl)-4-hydroxy-5-methylimidazolidin-2-one] cannot be ordered by IC50: < 1 µM for the first, < 1 µM for the second.

`N#Cc1cccc(C2(O)N(c3ccc(C(F)(F)F)cc3)C(=O)N(c3ccc(C(F)(F)F)cc3)C23CCC3)c1` (stereo not shown) [Example 212, 3-(8-hydroxy-6-oxo-5,7-bis(4-(trifluoromethyl)phenyl)-5,7-diazaspiro[3.4]octan-8-yl)benzonitrile] and `CCCC1N(c2ccc(Cl)cc2)C(=O)N(c2ccc(Cl)cc2)C1(O)c1cccc(C(F)(F)F)c1` (stereo not shown) [Compound 87, 1,3-bis(4-chlorophenyl)-4-hydroxy-5-propyl-4-(3-(trifluoromethyl)phenyl)imidazolidin-2-one] cannot be ordered by IC50: < 1 µM for the first, < 1 µM for the second.

`O=c1n(-c2ccc(Br)cc2)c(-c2ccccc2)c(C2CC2)n1-c1ccc(Br)cc1` [Compound 249, 1,3-bis(4-bromophenyl)-4-cyclopropyl-5-phenyl-1,3-dihydro-2H-imidazol-2-one] and `COc1cccc(C2(O)[C@H](C)N(c3ccc(Br)cc3)C(=O)N2c2ccc(Br)cc2)c1` (stereo partly drawn) [Compound 71-1, (5S)-1,3-bis(4-bromophenyl)-4-hydroxy-4-(3-methoxyphenyl)-5-methylimidazolidin-2-one] cannot be ordered by IC50: < 1 µM for the first, < 1 µM for the second.

For `COC[C@@H]1N(c2ccc(Cl)cc2)C(=O)N(c2ccc(Cl)cc2)C1(O)c1cccc(OC(F)F)c1` (stereo partly drawn) [Compound 238-1, (5S)-1,3-bis(4-chlorophenyl)-4-(3-(difluoromethoxy)phenyl)-4-hydroxy-5-(methoxymethyl)imidazolidin-2-one], the IC50 was < 1 µM.
